Data: PubChem BioAssay AID1259407 (Chemical Carcinogenesis Research Information System (CCRIS), 2018)
Calls of active or inactive are those of the source. No rule for the calls is given here.

Tested on: CCRIS mutagenicity, Ames/micronucleus/aberration tests
Experiment: CCRIS mutagenicity studies
[1] = Test System: AMES SALMONELLA TYPHIMURIUM, Strain/Indicator: TA1535, Metabolic Activation: NONE, Method: STANDARD PLATE
[2] = Test System: AMES SALMONELLA TYPHIMURIUM, Strain/Indicator: TA98, Metabolic Activation: NONE, Method: STANDARD PLATE
[3] = Test System: AMES SALMONELLA TYPHIMURIUM, Strain/Indicator: TA98, Metabolic Activation: RAT, LIVER, S-9, AROCLOR 1254, Method: STANDARD PLATE
[4] = Test System: AMES SALMONELLA TYPHIMURIUM, Strain/Indicator: TA100, Metabolic Activation: NONE, Method: STANDARD PLATE
[5] = Test System: AMES SALMONELLA TYPHIMURIUM, Strain/Indicator: TA100, Metabolic Activation: RAT, LIVER, S-9, AROCLOR 1254, Method: STANDARD PLATE
[6] = Test System: AMES SALMONELLA TYPHIMURIUM, Strain/Indicator: TA1535, Metabolic Activation: RAT, LIVER, S-9, AROCLOR 1254, Method: STANDARD PLATE
[7] = Test System: AMES SALMONELLA TYPHIMURIUM, Strain/Indicator: TA1537, Metabolic Activation: NONE, Method: STANDARD PLATE
[8] = Test System: AMES SALMONELLA TYPHIMURIUM, Strain/Indicator: TA1537, Metabolic Activation: RAT, LIVER, S-9, AROCLOR 1254, Method: STANDARD PLATE
[9] = Test System: AMES SALMONELLA TYPHIMURIUM, Strain/Indicator: TA98, Metabolic Activation: NONE, Method: PREINCUBATION
[10] = Test System: AMES SALMONELLA TYPHIMURIUM, Strain/Indicator: TA100, Metabolic Activation: NONE, Method: PREINCUBATION

O=c1[nH]cc(N(CCCl)CCCl)c(=O)[nH]1
mutagenic call [1]: active; positive | mutagenic call (Test System: E. COLI, Strain/Indicator: WP2 UVRA, Metabolic Activation: HAMSTER, LIVER, S-9, AROCLOR 1254, Method: STANDARD PLATE): active; positive | mutagenic call (Test System: E. COLI, Strain/Indicator: WP2 UVRA, Metabolic Activation: HAMSTER, LIVER, S-9, Method: STANDARD PLATE): active; positive | mutagenic call (Test System: E. COLI, Strain/Indicator: WP2 UVRA, Metabolic Activation: MOUSE, LIVER, S-9, Method: STANDARD PLATE): active; positive | mutagenic call (Test System: E. COLI, Strain/Indicator: WP2 UVRA, Metabolic Activation: NONE, Method: STANDARD PLATE): active; positive | mutagenic call (Test System: E. COLI, Strain/Indicator: WP2 UVRA, Metabolic Activation: RAT, LIVER, S-9, AROCLOR 1254, Method: STANDARD PLATE): active; positive | mutagenic call (Test System: E. COLI, Strain/Indicator: WP2 UVRA, Metabolic Activation: RAT, LIVER, S-9, Method: STANDARD PLATE): active; positive | mutagenic call (Test System: MOUSE LYMPHOMA, Strain/Indicator: L5178Y (TK+/TK-), Metabolic Activation: NONE, Method: SUSPENSION/PLATE): active; positive | mutagenic call (Test System: MOUSE LYMPHOMA, Strain/Indicator: L5178Y (TK+/TK-), Metabolic Activation: RAT, LIVER, S-9, AROCLOR 1254, Method: SUSPENSION/PLATE): active; positive

O=C(OCc1ccccc1)c1cccc2cccnc12
mutagenic call [2]: inactive; negative | mutagenic call [3]: inactive; negative | mutagenic call [4]: inactive; negative | mutagenic call [5]: inactive; negative | mutagenic call [1]: inactive; negative | mutagenic call [6]: inactive; negative | mutagenic call [7]: inactive; negative | mutagenic call [8]: inactive; negative

CC(=O)Nc1cccc2ncccc12
mutagenic call [9]: inactive; negative | mutagenic call (Test System: AMES SALMONELLA TYPHIMURIUM, Strain/Indicator: TA98, Metabolic Activation: RAT, LIVER, S-9, KANECHLOR 500, Method: PREINCUBATION): inactive; negative | mutagenic call [10]: inactive; negative | mutagenic call (Test System: AMES SALMONELLA TYPHIMURIUM, Strain/Indicator: TA100, Metabolic Activation: RAT, LIVER, S-9, KANECHLOR 500, Method: PREINCUBATION): inactive; negative

CC(CC(=O)O)C(=O)O (configuration not stated)
mutagenic call (Test System: AMES SALMONELLA TYPHIMURIUM, Strain/Indicator: TA97, Metabolic Activation: HAMSTER, LIVER, S-9, AROCLOR 1254 (10%), Method: PREINCUBATION): inactive; negative | mutagenic call (Test System: AMES SALMONELLA TYPHIMURIUM, Strain/Indicator: TA97, Metabolic Activation: HAMSTER, LIVER, S-9, AROCLOR 1254 (30%), Method: PREINCUBATION): inactive; negative | mutagenic call (Test System: AMES SALMONELLA TYPHIMURIUM, Strain/Indicator: TA97, Metabolic Activation: NONE, Method: PREINCUBATION): inactive; negative | mutagenic call (Test System: AMES SALMONELLA TYPHIMURIUM, Strain/Indicator: TA97, Metabolic Activation: RAT, LIVER, S-9, AROCLOR 1254 (10%), Method: PREINCUBATION): inactive; negative | mutagenic call (Test System: AMES SALMONELLA TYPHIMURIUM, Strain/Indicator: TA97, Metabolic Activation: RAT, LIVER, S-9, AROCLOR 1254 (30%), Method: PREINCUBATION): inactive; negative | mutagenic call (Test System: AMES SALMONELLA TYPHIMURIUM, Strain/Indicator: TA98, Metabolic Activation: HAMSTER, LIVER, S-9, AROCLOR 1254 (10%), Method: PREINCUBATION): inactive; negative | mutagenic call (Test System: AMES SALMONELLA TYPHIMURIUM, Strain/Indicator: TA98, Metabolic Activation: HAMSTER, LIVER, S-9, AROCLOR 1254 (30%), Method: PREINCUBATION): inactive; negative | mutagenic call [9]: inactive; negative | mutagenic call (Test System: AMES SALMONELLA TYPHIMURIUM, Strain/Indicator: TA98, Metabolic Activation: RAT, LIVER, S-9, AROCLOR 1254 (10%), Method: PREINCUBATION): inactive; negative | mutagenic call (Test System: AMES SALMONELLA TYPHIMURIUM, Strain/Indicator: TA98, Metabolic Activation: RAT, LIVER, S-9, AROCLOR 1254 (30%), Method: PREINCUBATION): inactive; negative | mutagenic call (Test System: AMES SALMONELLA TYPHIMURIUM, Strain/Indicator: TA100, Metabolic Activation: HAMSTER, LIVER, S-9, AROCLOR 1254 (10%), Method: PREINCUBATION): inactive; negative | mutagenic call (Test System: AMES SALMONELLA TYPHIMURIUM, Strain/Indicator: TA100, Metabolic Activation: HAMSTER, LIVER, S-9, AROCLOR 1254 (30%), Method: PREINCUBATION): inactive; negative | mutagenic call [10]: inactive; negative | mutagenic call (Test System: AMES SALMONELLA TYPHIMURIUM, Strain/Indicator: TA100, Metabolic Activation: RAT, LIVER, S-9, AROCLOR 1254 (10%), Method: PREINCUBATION): inactive; negative | mutagenic call (Test System: AMES SALMONELLA TYPHIMURIUM, Strain/Indicator: TA100, Metabolic Activation: RAT, LIVER, S-9, AROCLOR 1254 (30%), Method: PREINCUBATION): inactive; negative | mutagenic call (Test System: AMES SALMONELLA TYPHIMURIUM, Strain/Indicator: TA1535, Metabolic Activation: HAMSTER, LIVER, S-9, AROCLOR 1254 (10%), Method: PREINCUBATION): inactive; negative | mutagenic call (Test System: AMES SALMONELLA TYPHIMURIUM, Strain/Indicator: TA1535, Metabolic Activation: HAMSTER, LIVER, S-9, AROCLOR 1254 (30%), Method: PREINCUBATION): inactive; negative | mutagenic call (Test System: AMES SALMONELLA TYPHIMURIUM, Strain/Indicator: TA1535, Metabolic Activation: NONE, Method: PREINCUBATION): inactive; negative | mutagenic call (Test System: AMES SALMONELLA TYPHIMURIUM, Strain/Indicator: TA1535, Metabolic Activation: RAT, LIVER, S-9, AROCLOR 1254 (10%), Method: PREINCUBATION): inactive; negative | mutagenic call (Test System: AMES SALMONELLA TYPHIMURIUM, Strain/Indicator: TA1535, Metabolic Activation: RAT, LIVER, S-9, AROCLOR 1254 (30%), Method: PREINCUBATION): inactive; negative | mutagenic call (Test System: AMES SALMONELLA TYPHIMURIUM, Strain/Indicator: TA1537, Metabolic Activation: HAMSTER, LIVER, S-9, AROCLOR 1254 (30%), Method: PREINCUBATION): inactive; negative | mutagenic call (Test System: AMES SALMONELLA TYPHIMURIUM, Strain/Indicator: TA1537, Metabolic Activation: NONE, Method: PREINCUBATION): inactive; negative | mutagenic call (Test System: AMES SALMONELLA TYPHIMURIUM, Strain/Indicator: TA1537, Metabolic Activation: RAT, LIVER, S-9, AROCLOR 1254 (30%), Method: PREINCUBATION): inactive; negative

[N-]=[N+]=NCCC(c1ccccc1)c1ccccc1
mutagenic call (Test System: AMES SALMONELLA TYPHIMURIUM, Strain/Indicator: TA100, Metabolic Activation: RAT, LIVER, S-9, PCB, Method: PREINCUBATION): active; positive

Fc1ccc2cc3c(cc2c1)-c1cccc2cccc-3c12
mutagenic call [5]: active; positive

CC1(C)COCN1
mutagenic call (End Point: In vitro chromosomal aberrations, Test System: Chinese hamster ovary (CHO) cells, Metabolic Activation: None): active; positive | mutagenic call (End Point: In vitro chromosomal aberrations, Test System: Chinese hamster ovary (CHO) cells, Metabolic Activation: S-9): active; positive | mutagenic call (Test System: Mouse lymphoma, Strain/Indicator: L5178Y (TK+/TK-), Metabolic Activation: None, Method: Not specified by DPR): active; positive (purity 78%) | mutagenic call (Test System: Mouse lymphoma, Strain/Indicator: L5178Y (TK+/TK-), Metabolic Activation: S-9, Method: Not specified by DPR): active; positive (purity 78%)

Cc1cc(N(CCO)CCO)ccc1N=Nc1ccc(N)cc1
mutagenic call (Test System: AMES SALMONELLA TYPHIMURIUM, Strain/Indicator: TA98, Metabolic Activation: HAMSTER, LIVER, S-9, AROCLOR 1254, Method: STANDARD PLATE): inactive; negative | mutagenic call [2]: inactive; negative | mutagenic call (Test System: AMES SALMONELLA TYPHIMURIUM, Strain/Indicator: TA98, Metabolic Activation: RAT, LIVER, S-9, AROCLOR 1254, Method: PREINCUBATION): inactive; negative | mutagenic call [3]: inactive; negative | mutagenic call [4]: inactive; negative | mutagenic call [5]: inactive; negative | mutagenic call [1]: inactive; negative | mutagenic call [6]: inactive; negative | mutagenic call [7]: inactive; negative | mutagenic call [8]: inactive; negative | mutagenic call (Test System: AMES SALMONELLA TYPHIMURIUM, Strain/Indicator: TA1538, Metabolic Activation: NONE, Method: STANDARD PLATE): inactive; negative | mutagenic call (Test System: AMES SALMONELLA TYPHIMURIUM, Strain/Indicator: TA1538, Metabolic Activation: RAT, LIVER, S-9, AROCLOR 1254, Method: STANDARD PLATE): inactive; negative
